IC50 and Ki data for 9 compounds are collected here from ChEMBL document CHEMBL5579820, “New insights into butyrylcholinesterase: Pharmaceutical applications, selective inhibitors and multitarget-directed ligands” (Eur J Med Chem, 2024).

Experiment [1] is described as follows: Inhibition of equine serum BChE using butyrylthiocholine iodide as substrate incubated for 30 mins by Ellman's method. Also on record: species or system Equus caballus. (In Ellman's method for cholinesterases, released thiocholine reacts with DTNB.)
Experiment [2] addresses Indoleamine 2,3-dioxygenase 1 (Homo sapiens, UniProt P14902). Put plainly: Inhibition of IDO1 (unknown origin).
In experiment [3] the target is T1, Cholinesterase (Homo sapiens, UniProt P06276). Put plainly: Binding affinity to BChE (unknown origin) assessed as inhibition constant.
Experiment [4] concerns the target T2, Acetylcholinesterase (Homo sapiens, UniProt P22303). Put plainly: Binding affinity to AChE (unknown origin) assessed as inhibition constant.
Experiment [5] has as its target T2, Acetylcholinesterase. Put plainly: Inhibition of AChE (unknown origin).
Experiment [6] addresses T1, Cholinesterase. Put plainly: Inhibition of BChE (unknown origin).
For experiment [7], the target named is T3, Amine oxidase [flavin-containing] B (Homo sapiens, UniProt P27338).
T3 sequence (P27338 whole entry): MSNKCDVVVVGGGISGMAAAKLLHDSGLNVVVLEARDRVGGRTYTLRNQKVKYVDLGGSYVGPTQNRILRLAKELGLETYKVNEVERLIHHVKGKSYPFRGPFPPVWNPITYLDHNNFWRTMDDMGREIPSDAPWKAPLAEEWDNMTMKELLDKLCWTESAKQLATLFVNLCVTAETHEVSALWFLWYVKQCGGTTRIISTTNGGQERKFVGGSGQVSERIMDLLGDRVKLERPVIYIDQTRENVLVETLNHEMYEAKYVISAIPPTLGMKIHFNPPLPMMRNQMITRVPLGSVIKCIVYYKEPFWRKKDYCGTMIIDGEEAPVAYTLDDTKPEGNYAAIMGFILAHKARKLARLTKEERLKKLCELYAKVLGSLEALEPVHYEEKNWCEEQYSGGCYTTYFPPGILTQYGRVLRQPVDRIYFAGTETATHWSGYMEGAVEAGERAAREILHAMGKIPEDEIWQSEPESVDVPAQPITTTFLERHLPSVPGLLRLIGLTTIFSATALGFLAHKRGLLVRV
Put plainly: Inhibition of human recombinant MAO-B using benzylamine as substrate by fluorescence based analysis.

In experiment [8] the target is T4, Amine oxidase [flavin-containing] A (Homo sapiens, UniProt P21397).
T4 sequence (P21397 whole entry): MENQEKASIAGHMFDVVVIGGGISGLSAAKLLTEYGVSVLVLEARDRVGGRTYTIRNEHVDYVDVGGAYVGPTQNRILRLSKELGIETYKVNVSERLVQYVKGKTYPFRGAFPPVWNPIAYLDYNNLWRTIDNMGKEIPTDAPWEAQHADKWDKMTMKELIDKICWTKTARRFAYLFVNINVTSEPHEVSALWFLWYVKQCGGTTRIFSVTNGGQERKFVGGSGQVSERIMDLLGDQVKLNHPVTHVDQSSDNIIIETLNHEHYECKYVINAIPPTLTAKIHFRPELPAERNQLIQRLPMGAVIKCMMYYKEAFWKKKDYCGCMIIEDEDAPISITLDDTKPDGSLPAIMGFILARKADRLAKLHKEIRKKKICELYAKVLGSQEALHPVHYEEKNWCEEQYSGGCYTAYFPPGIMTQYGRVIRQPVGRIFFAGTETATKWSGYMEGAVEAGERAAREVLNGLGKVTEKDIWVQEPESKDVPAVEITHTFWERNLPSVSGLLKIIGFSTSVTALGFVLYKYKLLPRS
Put plainly: Inhibition of human recombinant MAO-A using kynuramine as substrate by incubated for 75 mins by spectrophotometric analysis.

Experiment [9] addresses Acetylcholinesterase (Electrophorus electricus, UniProt O42275). Put plainly: Inhibition of electric eel AChE using acetylthiocholine iodide as substrate by Ellman's method.
A short description of experiment [10]: Inhibition of equine serum BChE using butyrylthiocholine iodide as substrate by measured after 30 mins Ellman's method. Format: cell-free, Equus caballus.
Experiment [11] concerns the target T2, Acetylcholinesterase. Put plainly: Inhibition of human AChE using acetylthiocholine iodide as substrate by Ellman's method.
Experiment [12] addresses T1, Cholinesterase. Put plainly: Inhibition of human BChE using butyrylthiocholineiodide as substrate by Ellman's method.
Experiment [13] concerns the target T2, Acetylcholinesterase. Put plainly: Inhibition of human AChE by Ellman's method.
Experiment [14] deals with T5, Cholinesterase (Equus caballus, UniProt P81908). Put plainly: Inhibition of equine BuChE.
The target of experiment [15] is T2, Acetylcholinesterase. Put plainly: Inhibition of human recombinant AChE using acetylthiocholine iodide as substrate preincubated for 30 mins followed by substrate addition and measured for 60 mins by Ellman's method.
For experiment [16], the target named is T1, Cholinesterase. Put plainly: Inhibition of BChE (unknown origin) incubated for 10 mins by Ellman's method.
Experiment [17] concerns the target T5, Cholinesterase. Put plainly: Inhibition of equine serum BuChE using S-butyrylthiocholine chloride as substrate by Ellman's method. Format: cell-free.
For experiment [18], the target named is T2, Acetylcholinesterase. Put plainly: Inhibition of AChE (unknown origin) using acetylthiocholine iodide as substrate preincubated for 15 min followed by substrate addition and measured after 60 min by Ellman's method.
The target in experiment [19] is T1, Cholinesterase. Put plainly: Inhibition of human BChE using butyrylthiocholineiodide as substrate measured for 30 mins by Ellman's method.

T2 sequence (P22303 whole entry): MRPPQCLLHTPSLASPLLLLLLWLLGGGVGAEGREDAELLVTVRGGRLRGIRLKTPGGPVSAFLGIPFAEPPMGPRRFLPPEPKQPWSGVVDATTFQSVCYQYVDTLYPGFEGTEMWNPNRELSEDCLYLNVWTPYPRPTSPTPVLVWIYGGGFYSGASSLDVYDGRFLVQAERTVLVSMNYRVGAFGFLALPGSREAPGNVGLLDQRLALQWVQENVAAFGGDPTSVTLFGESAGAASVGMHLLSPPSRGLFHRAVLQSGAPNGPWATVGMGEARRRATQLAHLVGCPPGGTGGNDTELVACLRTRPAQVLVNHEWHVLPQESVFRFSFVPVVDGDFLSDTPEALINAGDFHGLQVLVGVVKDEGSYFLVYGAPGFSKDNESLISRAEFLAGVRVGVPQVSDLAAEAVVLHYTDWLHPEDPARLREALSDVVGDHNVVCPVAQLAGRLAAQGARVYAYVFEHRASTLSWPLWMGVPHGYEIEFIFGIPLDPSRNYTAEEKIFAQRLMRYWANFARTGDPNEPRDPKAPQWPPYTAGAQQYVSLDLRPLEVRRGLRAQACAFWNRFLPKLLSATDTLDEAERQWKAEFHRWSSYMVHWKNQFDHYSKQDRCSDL
T1 sequence (P06276 whole entry): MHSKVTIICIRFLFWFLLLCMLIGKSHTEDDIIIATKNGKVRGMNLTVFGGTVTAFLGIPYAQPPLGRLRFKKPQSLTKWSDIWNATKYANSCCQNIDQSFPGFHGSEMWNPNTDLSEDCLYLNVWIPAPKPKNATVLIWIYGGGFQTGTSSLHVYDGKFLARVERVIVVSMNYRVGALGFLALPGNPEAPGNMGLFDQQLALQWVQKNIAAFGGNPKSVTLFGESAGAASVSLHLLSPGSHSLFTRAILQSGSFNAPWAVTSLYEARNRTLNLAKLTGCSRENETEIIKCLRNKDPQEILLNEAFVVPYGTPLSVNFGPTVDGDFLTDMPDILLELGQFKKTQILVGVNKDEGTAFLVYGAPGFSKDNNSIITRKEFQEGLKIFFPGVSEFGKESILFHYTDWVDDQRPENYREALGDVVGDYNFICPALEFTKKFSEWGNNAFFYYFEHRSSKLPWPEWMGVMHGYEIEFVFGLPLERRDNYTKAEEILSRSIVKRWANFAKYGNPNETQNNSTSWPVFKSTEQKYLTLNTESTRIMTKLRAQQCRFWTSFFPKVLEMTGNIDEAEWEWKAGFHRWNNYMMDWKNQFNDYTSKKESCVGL
T5 sequence (P81908 whole entry): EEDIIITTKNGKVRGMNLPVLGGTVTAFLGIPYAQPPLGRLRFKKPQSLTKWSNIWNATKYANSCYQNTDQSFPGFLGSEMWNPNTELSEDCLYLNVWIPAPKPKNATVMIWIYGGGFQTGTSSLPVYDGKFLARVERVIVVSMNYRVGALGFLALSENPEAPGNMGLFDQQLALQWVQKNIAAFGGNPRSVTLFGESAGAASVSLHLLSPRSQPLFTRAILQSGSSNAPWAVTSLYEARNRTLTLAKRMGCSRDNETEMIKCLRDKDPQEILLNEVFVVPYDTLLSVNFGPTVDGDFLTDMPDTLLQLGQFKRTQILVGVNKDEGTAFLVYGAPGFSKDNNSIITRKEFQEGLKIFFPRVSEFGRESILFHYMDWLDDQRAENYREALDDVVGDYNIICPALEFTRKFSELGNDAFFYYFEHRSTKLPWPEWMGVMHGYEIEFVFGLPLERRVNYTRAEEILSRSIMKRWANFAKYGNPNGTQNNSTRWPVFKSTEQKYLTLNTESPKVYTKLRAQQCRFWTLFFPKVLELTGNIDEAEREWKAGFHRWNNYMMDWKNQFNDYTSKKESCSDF
Sequence of Indoleamine 2,3-dioxygenase 1 (P14902 whole entry): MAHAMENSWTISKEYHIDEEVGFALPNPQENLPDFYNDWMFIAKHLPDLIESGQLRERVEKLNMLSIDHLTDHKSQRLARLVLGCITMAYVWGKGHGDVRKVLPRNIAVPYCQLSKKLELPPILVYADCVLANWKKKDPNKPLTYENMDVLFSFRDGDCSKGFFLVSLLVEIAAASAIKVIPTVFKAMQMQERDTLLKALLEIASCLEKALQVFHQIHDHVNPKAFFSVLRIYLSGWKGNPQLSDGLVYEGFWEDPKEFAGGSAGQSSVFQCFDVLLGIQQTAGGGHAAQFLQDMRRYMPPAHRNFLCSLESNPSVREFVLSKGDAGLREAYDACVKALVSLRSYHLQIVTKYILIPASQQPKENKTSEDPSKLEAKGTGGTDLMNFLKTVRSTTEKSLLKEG
Sequence of Acetylcholinesterase (Electrophorus electricus, UniProt O42275) (O42275 whole entry): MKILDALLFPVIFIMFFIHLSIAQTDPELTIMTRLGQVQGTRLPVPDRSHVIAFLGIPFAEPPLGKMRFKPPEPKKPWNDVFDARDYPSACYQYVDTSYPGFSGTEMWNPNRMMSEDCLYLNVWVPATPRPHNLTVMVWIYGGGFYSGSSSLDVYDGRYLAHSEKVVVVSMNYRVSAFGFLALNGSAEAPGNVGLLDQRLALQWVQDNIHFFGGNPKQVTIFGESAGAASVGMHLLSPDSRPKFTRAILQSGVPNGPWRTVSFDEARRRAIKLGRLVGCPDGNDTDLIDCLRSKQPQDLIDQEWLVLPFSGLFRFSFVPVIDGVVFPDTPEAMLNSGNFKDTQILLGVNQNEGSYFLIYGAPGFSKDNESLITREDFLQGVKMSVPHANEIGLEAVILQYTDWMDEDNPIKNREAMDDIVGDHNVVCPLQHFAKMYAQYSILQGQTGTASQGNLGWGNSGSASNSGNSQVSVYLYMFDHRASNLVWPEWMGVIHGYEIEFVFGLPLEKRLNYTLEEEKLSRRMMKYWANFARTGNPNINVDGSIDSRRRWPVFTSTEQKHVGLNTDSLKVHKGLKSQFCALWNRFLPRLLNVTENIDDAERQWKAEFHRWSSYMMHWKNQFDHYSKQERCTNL

The IC50 is the midpoint of a concentration-inhibition curve. Consider `COc1cccc(COC(Cn2ccnc2)c2ccc(F)c(F)c2)c1` (centres undefined), for which the figures for the IC50 in [1] and in experiment [2] were 13.2 µM and 22.8 µM, respectively.
The Ki is the dissociation constant of the complex between target and ligand, obtained from inhibition or displacement. As to `O=C(Oc1cc(OC(=O)N2CCCCC2)cc(C(O)CN2CCCCC2)c1)N1CCCCC1` (centres undefined), the Ki at Cholinesterase [3] worked out at 0.011 µM; at Acetylcholinesterase [4], 6.93 µM.
Regarding `Cc1ccc(/C=N/NC(=O)Cn2c(=O)sc3ccccc32)s1`, the IC50 on Acetylcholinesterase [5] was greater than 40 µM; against Cholinesterase [6], 1.38 µM.
As to `COc1cccc(COc2ccc(C(C)=O)c(OCc3cn(CCc4c[nH]c5ccccc45)nn3)c2)c1`, the IC50 is 3.71 µM in [7], 74.7 µM in experiment [8], greater than 100 µM against Acetylcholinesterase [9] and 0.92 µM in [10].
Take `Cc1cc2c(cc1C)[n+](Cc1ccccc1C)cn2C(c1ccccc1)c1ccccc1`: the IC50 at Acetylcholinesterase [11] stood at 4.19 µM; on Cholinesterase [12], 0.15 µM.
Regarding `Nc1c2c(nc3ccccc13)CCC2`, the IC50 turned out to be 4.4 µM against Acetylcholinesterase [13] and 0.27 µM on Cholinesterase [14].
Turning to `Clc1ccc(C(Cn2ccnc2)OCc2csc3c(Cl)cccc23)c(Cl)c1` (centres undefined) [SERTACONAZOLE], at Acetylcholinesterase [15], the IC50 amounted to 0.1 µM.
As for `CN1CCc2c(c3cc(F)ccc3n2CCNC23CC4CC(C)(CC(C)(C4)C2)C3)C1`, the IC50 at Cholinesterase [16] stood at 39.7 µM; on Cholinesterase [17], 0.72 µM.
On to `c1ccc(-c2nn(-c3ccccc3)cc2-c2nc(-c3ccccc3)c(-c3ccccc3)n2-c2ccccc2)cc1`, for which the IC50 against Acetylcholinesterase [18] turned out to be 41.2 µM; at Cholinesterase [19], 0.35 µM.
